In the OPERA property sets (Mansouri et al. 2018):
Converted amounts (≈) assume the structure as drawn.

conditions: 20 °C

Row | solubility | Structure (SMILES)
1 | 36500 µM (≈ 3000 µg/mL) | Cc1ccco1
2 | 13700 µM (≈ 3000 µg/mL) | CCCCOCCOCCOCCCC
3 | 11500 µM (≈ 2000 µg/mL) | CCCCOCCOCCCC
4 | 67700 µM (≈ 9900 µg/mL) | CCCCCCOCCO

same assay, conditions: 25 °C

Row | solubility | Structure (SMILES)
5 | 3.98 µM (≈ 0.993 µg/mL) | CCCCCCCCOC(=O)c1ccc(N)cc1
6 | 28100 µM (≈ 3270 µg/mL) | CCCCCC(C)O (stereo not given)
7 | 25.1 µM (≈ 5.91 µg/mL) | CCCCCCCOC(=O)c1ccc(N)cc1
8 | 708000 µM (≈ 83700 µg/mL) | CCOCCOCC
9 | 119000 µM (≈ 12000 µg/mL) | CCCCCCN

The remaining lines, values behind:

Row | Structure (SMILES) | solubility
10 | Clc1ccc(-c2c(Cl)ccc(Cl)c2Cl)cc1Cl | 0.0224 µM (≈ 0.00731 µg/mL)
11 | Clc1cccc(-c2c(Cl)ccc(Cl)c2Cl)c1Cl | 0.166 µM (≈ 0.0542 µg/mL)
12 | CCCC[N+](=O)[O-] | 44600 µM (≈ 4600 µg/mL)
13 | Clc1cc(Cl)c(Cl)c(-c2c(Cl)ccc(Cl)c2Cl)c1 | 0.0151 µM (≈ 0.00544 µg/mL)
14 | Fc1cccc(F)c1 | 9990 µM (≈ 1140 µg/mL)
15 | CC(=O)Nc1ccccc1[N+](=O)[O-] | 12300 µM (≈ 2220 µg/mL)
16 | Clc1cccc(-c2ccccc2)c1Cl | 4.47 µM (≈ 0.997 µg/mL)
17 | Clc1ccccc1-c1c(Cl)cccc1Cl | 1.26 µM (≈ 0.324 µg/mL)
18 | Clc1ccc(-c2ccc(Cl)c(Cl)c2Cl)c(Cl)c1 | 0.024 µM (≈ 0.00783 µg/mL)
19 | O=Cc1ccc([N+](=O)[O-])cc1 | 15500 µM (≈ 2340 µg/mL)
20 | Clc1cc(Cl)c(-c2c(Cl)ccc(Cl)c2Cl)cc1Cl | 0.0117 µM (≈ 0.00424 µg/mL)
21 | CCc1ccc(C)cc1 | 790 µM (≈ 94.9 µg/mL)
22 | Clc1ccc(-c2c(Cl)cccc2Cl)cc1 | 0.617 µM (≈ 0.159 µg/mL)
23 | Clc1ccccc1-c1ccc(Cl)c(Cl)c1Cl | 0.148 µM (≈ 0.0432 µg/mL)
24 | CCCOC(N)=O | 741000 µM (≈ 76400 µg/mL)
25 | Clc1ccc(Cl)c(-c2ccccc2)c1Cl | 0.323 µM (≈ 0.0833 µg/mL)
